Earlier results in US20210353710A1, “GLP-1R AGONIST AND METHODS OF TREATMENT” (The Johns Hopkins University, priority 2020, published 2021).

Conditions: given twice a day for one month

**Q.** With Exendin-4 as the substance, how does the “effect on blood glucose in humans” value read?
**A.** Its value is “hypoglycemic effect”.
